Values after ≈ are worked out from the molar mass of the structure shown.

In experiment [1] the test system is human colon cancer cell HT-29. Nature of the experiment: In vitro anti-tumor cell activity (MTT), HT-29. As to conditions: HT-29 cells, MTT, 72 h, Bliss method; for IC50: Homo sapiens, read-out: HT-29 IC50. Type of experiment: cell-based. The gist of the method:
(§1)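 Cells seeded at 10^4 cells/well and grown 24 h were exposed to compounds for 72 h. Viability was read by MTT (0.5 mg/mL, 4 h) with formazan dissolved in DMSO, and IC50 was derived by the Bliss method.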

Experiment [2] has as its system human nonsmall-cell lung cancer cell H460. In words: In vitro anti-tumor cell activity (MTT), H460. As to conditions: H460 cells, MTT, 72 h, Bliss method; for IC50: Homo sapiens, NCI-H460, read-out: H460 IC50. Type of experiment: cell-based. The gist of the method:
as §1

Experiment [3] addresses T1, c-Met kinase (His-tagged recombinant human Met (amino acids 974-end)) (Homo sapiens, UniProt P08581).
T1 construct: His-tagged recombinant human Met (amino acids 974-end); His
In words: c-Met Enzyme Activity Inhibition Assay (ELISA). Type of experiment: biochemical. As to conditions: 50 pM c-Met, 5 μM ATP, room temperature 20 min; for IC50: read-out: IC50 for inhibiting c-Met kinase (converted). A digest of the protocol:
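Baculovirus-expressed His-tagged c-Met (974-end) at 50 pM with 5 μM ATP, 25 mM MOPS pH 7.4, MgCl2, MnCl2, vanadate, DTT, 1% DMSO, incubated 20 min at room temperature on POT-coated plate. Phosphorylated polymer detected with HRP-conjugated PY20 antibody, TMB read at 450 nm.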
(In general: In an ELISA, binding on a coated surface is turned into a signal by an enzyme label.)

Experiment [4] deals with human gastric cancer cell MKN-45. In words: In vitro anti-tumor cell activity (MTT), MKN-45. As to conditions: MKN-45 cells, MTT, 72 h, Bliss method; for IC50: Homo sapiens, read-out: MKN-45 IC50. Type of experiment: cell-based. The gist of the method: as §1
In experiment [5] the test system is human hepatoma carcinoma cell line SMMC-7721. In words: In vitro anti-tumor cell activity (MTT), SMMC-7721. Type of experiment: cell-based. As to conditions: SMMC-7721 cells, MTT, 72 h, Bliss method; for IC50: Homo sapiens, read-out: SMMC-7721 IC50. A digest of the protocol: as §1

T1 sequence (P08581 956-1390): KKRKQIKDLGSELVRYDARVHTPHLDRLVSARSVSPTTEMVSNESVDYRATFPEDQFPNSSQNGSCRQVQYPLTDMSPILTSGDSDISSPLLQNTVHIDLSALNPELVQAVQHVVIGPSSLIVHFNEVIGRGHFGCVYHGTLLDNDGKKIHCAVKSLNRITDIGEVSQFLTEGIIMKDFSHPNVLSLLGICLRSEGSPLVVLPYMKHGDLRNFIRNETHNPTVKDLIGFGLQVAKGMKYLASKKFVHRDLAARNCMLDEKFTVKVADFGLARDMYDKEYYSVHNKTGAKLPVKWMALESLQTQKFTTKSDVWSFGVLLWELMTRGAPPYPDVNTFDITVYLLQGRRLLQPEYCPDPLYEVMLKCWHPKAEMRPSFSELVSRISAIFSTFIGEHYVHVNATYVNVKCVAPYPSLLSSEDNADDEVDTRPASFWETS

By IC50 is commonly meant the midpoint of a concentration-inhibition curve. In the case of `COc1cc2c(Oc3ccc(NC(=O)c4nn(-c5ccc(F)cc5)c(=O)n(C)c4=O)cc3F)ccnc2cc1OCCCN1CCCC1` [Example 6, N-[3-fluoro-4-[6-methoxy-7-[3-(1-pyrrolidyl]propyloxy]quinolin-4-oxy]phenyl]-2-(4-fluorophenyl)-4-methyl-3,5-dioxo-2,3,4,5-tetrahydro-1,2,4-triazine-6-carboxamide], the IC50 in experiment [1] is 0.06 µg/mL (≈ 0.0911 µM); in experiment [2], 0.032 µg/mL (≈ 0.0486 µM); in experiment [3], 48.6 nM; in experiment [4], 0.021 µg/mL (≈ 0.0319 µM); in experiment [5], 0.11 µg/mL (≈ 0.167 µM).

As for “N-[3-fluoro-4-[6-methoxy-7-[3-(4-methyl-1-piperidinyl)propyloxy]quinolin-4-oxy]phenyl]-2-(4-methylphenyl)-4-methyl-3,5-dicarbonyl-2,3,4,5-tetrahydro-1,2,4-triazine-6-carboxamide [Example 14]”, the “HT-29 IC50” value in experiment [1] amounted to 0.11 µg/mL. Moreover, the “H460 IC50” value in experiment [2] was found to be 0.15 µg/mL. Also, the “IC50 for inhibiting c-Met kinase” value in experiment [3] amounted to 0.088 µg/mL. For the same compound, in experiment [4], the “MKN-45 IC50” value is 2.1 µg/mL. Besides, the “SMMC-7721 IC50” value in experiment [5] is 0.88 µg/mL.

For the compound “N-[3-fluoro-4-[7-methoxy-6-[3-(1-pyrrolidyl)propyloxy]quinolin-4-oxy]phenyl]-2-(2-trifluoromethylphenyl)-4-butyl-3,5-dicarbonyl-2,3,4,5-tetrahydro-1,2,4-triazine-6-carboxamide [Example 35]”, in experiment [1], the “HT-29 IC50” value was 0.079 µg/mL. Also, the “H460 IC50” value in experiment [2] is 0.12 µg/mL. Moreover, the “IC50 for inhibiting c-Met kinase” value in experiment [3] is 0.03 µg/mL. Moreover, the “MKN-45 IC50” value in experiment [4] stood at 0.005 µg/mL. Further, in experiment [5], the “SMMC-7721 IC50” value is 0.31 µg/mL.

Turning to `COc1cc2c(Oc3ccc(NC(=O)c4nn(-c5ccccc5)c(=O)n(C)c4=O)cc3F)ccnc2cc1OCCCN1CCN(C)CC1` [Example 5, N-[3-fluoro-4-[6-methoxy-7-[3-(4-methyl-1-piperazinyl)propyloxy]oxy]phenyl)-2-phenyl-4-methyl-3,5-dioxo-2,3,4,5-tetrahydro-1,2,4-triazine-6-carboxamide], the “HT-29 IC50” value in experiment [1] is 0.12 µg/mL. In addition, the “H460 IC50” value in experiment [2] amounted to 0.094 µg/mL. Also, in experiment [3], the “IC50 for inhibiting c-Met kinase” value is 0.28 µg/mL. Further, the “MKN-45 IC50” value in experiment [4] amounted to 0.12 µg/mL. Also, in experiment [5], the “SMMC-7721 IC50” value came out at 0.15 µg/mL.

In the case of “N-[3-fluoro-4-[6-methoxy-7-[3-(4-methyl-1-piperidinyl)propyloxy]quinolin-4-oxy]phenyl]-2-phenyl-4-methyl-3,5-dioxo-2,3,4,5-tetrahydro-1,2,4-triazine-6-carboxamide [Example 4]”, the “HT-29 IC50” value in experiment [1] is 0.13 µg/mL. Besides, the “H460 IC50” value in experiment [2] turned out to be 0.087 µg/mL. Besides, the “IC50 for inhibiting c-Met kinase” value in experiment [3] was found to be 0.63 µg/mL. The “MKN-45 IC50” value in experiment [4] is 0.053 µg/mL. Moreover, in experiment [5], the “SMMC-7721 IC50” value is 0.071 µg/mL.

On to “N-[3-fluoro-4-[7-methoxy-6-[3-(1-piperidinyl)propyloxy]quinolin-4-oxy]phenyl]-2-(2-trifluoromethylphenyl)-4-allyl-3,5-dicarbonyl-2,3,4,5-tetrahydro-1,2,4-triazine-6-carboxamide [Example 37]”, for which, in experiment [1], the “HT-29 IC50” value stood at 0.88 µg/mL. Moreover, the “H460 IC50” value in experiment [2] was found to be 1.7 µg/mL. Besides, the “IC50 for inhibiting c-Met kinase” value in experiment [3] is 3.7 µg/mL. For the same compound, the “MKN-45 IC50” value in experiment [4] came out at 0.12 µg/mL. In addition, in experiment [5], the “SMMC-7721 IC50” value was determined as 2.3 µg/mL.

Turning to “N-[3-fluoro-4-[6-methoxy-7-[3-(4-methyl-1-piperazinyl)propyloxy]quinolin]-4-oxy]phenyl]-2-(3-trifluoromethylphenyl)-4-benzyl-3,5-dicarbonyl-2,3,4,5-tetrahydro-1,2,4-triazine-6-carboxamide [Example 47]”, the “HT-29 IC50” value in experiment [1] was determined as 0.09 µg/mL. In addition, the “H460 IC50” value in experiment [2] was found to be 1.1 µg/mL. In addition, the “IC50 for inhibiting c-Met kinase” value in experiment [3] was determined as 5.92 µg/mL. For the same compound, in experiment [4], the “MKN-45 IC50” value was found to be 0.4 µg/mL. Also, in experiment [5], the “SMMC-7721 IC50” value is 3.7 µg/mL.

As to “N-[3-fluoro-4-[6-methoxy-7-[3-(4-morpholinyl)propyloxy]quinolin-4-oxy]phenyl]-2-(2-fluorophenyl)-4-methyl-3,5-dicarbonyl-2,3,4,5-tetrahydro-1,2,4-triazine-6-carboxamide [Example 23]”, the “HT-29 IC50” value in experiment [1] worked out at 0.35 µg/mL. Besides, the “H460 IC50” value in experiment [2] worked out at 0.57 µg/mL. Also, the “IC50 for inhibiting c-Met kinase” value in experiment [3] turned out to be 0.82 µg/mL. Besides, in experiment [4], the “MKN-45 IC50” value was 0.0028 µg/mL. For the same compound, the “SMMC-7721 IC50” value in experiment [5] came out at 0.44 µg/mL.

Turning to `COc1cc2c(Oc3ccc(NC(=O)c4nn(-c5ccc(F)c(F)c5)c(=O)n(C)c4=O)cc3F)ccnc2cc1OCCCN1CCC(C)CC1` [Example 19, N-[3-fluoro-4-[6-methoxy-7-[3-(4-methylpiperidin-1-yl)propyloxy]quinolin-4-oxy]phenyl]-2-(3,4-difluorophenyl)-4-methyl-3,5-dioxo-2,3,4,5-tetrahydro-1,2,4-triazine-6-carboxamide], the IC50 is 0.24 µg/mL (≈ 0.341 µM) in experiment [1]; 1.1 µg/mL (≈ 1.56 µM) in experiment [2]; 766 nM in experiment [3]; 0.23 µg/mL (≈ 0.326 µM) in experiment [4]; 0.74 µg/mL (≈ 1.05 µM) in experiment [5].

Consider “N-[3-fluoro-4-[6-methoxy-7-[3-(1-piperidinyl)propyloxy]quinolin]-4-oxy]phenyl]-2-(2,4-difluorophenyl)-4-benzyl-3,5-dicarbonyl-2,3,4,5-tetrahydro-1,2,4-triazine-6-carboxamide [Example 44]”, for which the “HT-29 IC50” value in experiment [1] turned out to be 0.57 µg/mL. Besides, in experiment [2], the “H460 IC50” value was 0.99 µg/mL. The “IC50 for inhibiting c-Met kinase” value in experiment [3] came to 6.1 µg/mL. The “MKN-45 IC50” value in experiment [4] stood at 0.13 µg/mL. Besides, the “SMMC-7721 IC50” value in experiment [5] came to 2.5 µg/mL.

The values above are taken from patent publication US8993566B2, “Quinoline compound composing 1,2,4-triazine-dione and use thereof” (Wuhan Shengyun Biopharma Co., Ltd., priority 2012, dated 2015).
